Source: EP3748362A1, “IN VITRO METHOD FOR DETECTING RENAL DISEASE” (Fundacion Instituto De Investigacion Sanitaria Fundacion …, priority 2019, dated 2020)
“Also recorded” adds a separate entry of the source.

Assays:
NF-κB2 = NF-κB2 activation (p52 western blot) in MARSS gene silenced HK2 cells stimulated with TWEAK; assay type: cell-based, Human; conditions: paricalcitol 15 µmol/L 48 hours, TWEAK 100 ng/ml
Experimental: Human kidney proximal tubule epithelial cells (HK2 cell line, ATCC CRL-2190) were grown in RPMI 1640 with 10% fetal bovine serum (FBS), 1% glutamine, 100 U/ml penicillin, 100 µg/ml streptomycin, 5 µg/ml insulin-transferrin-selenite and 36 ng/ml hydrocortisone in 5% CO2 at 37° C. When cells reached 60 to 70% confluence, they were serum-depleted for 24 hours before the experiment.
Cells were stimulated with 100ng/ml recombinant human soluble TWEAK (Millipore) or p-200 µg/ml cresyl-sulfate (Raymond Vanholder and Griet Glorieux, University of Gent, Belgium). Concentrations of TWEAK and p-cresyl-sulfate were based on previously published dose-response experiments (Poveda et al. 2014; Sanz et al. 2008). […] DMSO, used as a solvent in some cases, had no effect on cell viability or on gene expression levels.
For western blot, cell (25 µg/lane) and kidney (100-150 µg/lane) protein extracts were separated on 6%-12% polyacrylamide-SDS gels under reducing conditions. […] Autoradiographs were scanned using the Gel Doc™ EZ imager and analyzed with the Image Lab 3.0 software (BioRad). […]

RelB or p52/NF-κB2 = experiment: p52 and RelB DNA binding activity in PBMCs from ESRD patients on hemodialysis; assay type: in vivo, human; conditions: PBMCs from paricalcitol-treated ESRD patients; RelB or p52 DNA binding activities
Experimental: Intracellular protein and mRNA levels were measured in PBMCs from ESRD patients on hemodialysis. Inclusion criteria were as follows: age >45 years; male sex; informed consent; and absence of active inflammatory, infectious, or malignant diseases at the initiation or during the study. This study was approved by the IIS-Fundación Jiménez Diaz Ethics Committee. Patients were enrolled after providing written informed consent. PBMCs were separated from whole blood samples (30 ml into EDTA tubes) by a density gradient centrifugation method using Ficoll density gradient centrifugation. In total, 50x10^6 of PBMCs were obtained from 30 ml of whole blood and 6x10^6 PBMCs were used to isolate protein, RNA and nuclear/cytosolic protein levels using the NE-PER Reagent (Pierce) following the manufacturer's instructions.
Nuclear and cytoplasmic fractions were separated from renal tissues using the NE-PER Reagent (Pierce) following the manufacturer's instructions. In renal nuclear extracts, NF-κB2 and RelB DNA binding activity was measured by its binding to an oligonucleotide containing the NF-κB consensus site using a TransAM NF-κB Family kit (Active Motif) with an antibody that only recognizes active NF-κB2 p52 and RelB.

[1] = Renal function (serum BUN), folic acid-induced renal injury in mice; assay type: in vivo; conditions: folic acid 300 mg/kg model; paricalcitol 25 µg/kg/day i.p.
Experimental: (§1) All animal procedures were performed according to the guidelines of animal research in the European Community and with prior approval by the Ethics Committee of the Health Research of the IIS-Fundacion Jiménez Díaz. For in vivo studies, mice received a daily intraperitoneal injection of the VDRA Paricalcitol starting 48 hours prior to induction of kidney damage.
Folic acid nephropathy is a classical model of kidney tubulointerstitial injury and inflammation that has been reported in humans. Mice received a single intraperitoneal injection of folic acid (Sigma) 300 mg/kg in 0.3 mol/l sodium bicarbonate or vehicle, and were sacrificed 48 hours later. Two groups were studied; untreated or paricalcitol treated (25 µg/kg/day, i.p., Abbot), n=7-8 per group starting 48 hours before FA injection. The dose of paricalcitol was chosen based on dose-finding preliminary experiments.

TRAF3 = experiment: Renal TRAF3 (western blot), TWEAK-mediated renal inflammation in mice; assay type: in vivo; conditions: TWEAK 0.5 µg model; paricalcitol 750 ng/kg/day i.p.; sacrificed 24 hours after TWEAK
Experimental: as §1
(§2) At the time of sacrifice, animals were anesthetized with 5 mg/kg xylazine (Rompun, Bayer AG) and 35 mg/kg ketamine (Ketolar, Pfizer) and the kidneys perfused in situ with cold saline before removal. Then, kidney portions were fixed in formalin buffer for immunohistochemistry studies or immediately frozen in liquid nitrogen for gene and protein studies.
(§3) TWEAK administration: C57BL/6 female mice (9-12 weeks, weight 20 g, 7-8 animals per group), received a single intraperitoneal injection of 0.5 µg TWEAK dissolved in saline and were sacrificed 24 hours later, as previously described (Sanz et al. 2008). Controls were injected with the saline vehicle (n=8-10 mice per group). TWEAK endotoxin level were <0.1 ng/mg, confirmed by MALDI-TOF. […]
(§4) For western blot, cell (25 µg/lane) and kidney (100-150 µg/lane) protein extracts were separated on 6%-12% polyacrylamide-SDS gels under reducing conditions. […] Autoradiographs were scanned using the Gel Doc™ EZ imager and analyzed with the Image Lab 3.0 software (BioRad).

NF-κB1 = experiment: Canonical NF-κB1 activation in kidneys of TWEAK-injected mice; assay type: in vivo; conditions: kidneys from TWEAK-injected mice; paricalcitol 750 ng/kg/day
Experimental: as §1, §2, §3, §4

With `C[C@H](/C=C/[C@H](C)C(C)(C)O)[C@H]1CC[C@H]2/C(=C/C=C3C[C@@H](O)C[C@H](O)C3)CCC[C@]12C` [paricalcitol] the “TWEAK-induced NF-κB2 activation” value (NF-κB2) was “diminished”, the NF-κB2 pathway activation (RelB or p52/NF-κB2) was “inhibited” and the “renal function assessed by serum BUN levels” value [1] was “restored changes in renal function”. The “renal TRAF3 protein levels” value (TRAF3) was “restored renal TRAF3 protein levels to values of control mice” and the “IκBα phosphorylation and nuclear p65 NF-κB levels” value (NF-κB1) was “not modulated; also recorded: not modified”.
